Measured values from patent US20250375539A1, “COMPOSITIONS OF DISPERSED SYSTEMS FOR BIOMEDICAL APPLICATIONS, PROCESS FOR THEIR PREPARATION AND USES THEREOF” (SUPERBRANCHE, priority 2022, published 2025).

Assay: Isothermal compression of Langmuir monolayers of dendrons at the air/water interface
Type: physicochemical
Settings: 25±0.5° C.
Experimental: The evaluation of anchoring capability of the dendrons at interfacial film of microbubbles was evaluated by investigating the isothermal compression of Langmuir monolayers formed by these molecules at the air/water interface. Langmuir monolayers constitute a bidimensional experimental model of the interfacial film of the nanoemulsions. In the above-mentioned experiments, the surface pressure (π) versus molecular area (A) isotherms were recorded using a Langmuir minitrough (KSV NIMA, Finland) equipped with two movable barriers (initial area: 365×75 mm^2, compression speed: 10 cm^2 min^−1, which corresponded to a reduction of the total area of ˜3.6% min^−1). π was measured using the Wilhelmy plate (paper) method. The trough was maintained at 25±0.5° C. Solutions of oligo(ethylene oxide) dendrons (1 mmol L^−1) in chloroform were spread on the surface of water (320 mL). Subsequently, 15 min was allowed for chloroform to evaporate and the film to equilibrate before compression was initiated. All the experiments were performed at least three times. Since our Langmuir trough only allowed for a surface area compression of about 10, isotherms were recorded in three separate experiments.

CCOP(=O)(Cc1cc(CP(=O)(OCC)OCC)cc(OCCNC(=O)c2cc(OCCOCCOCCOCCOC)c(OCCOCCOCCOCCOC)c(OCCOCCOCCOCCOC)c2)c1)OCC [DM]
collapse pressure / surface pressure of the Langmuir monolayer: ~10 mN m^−1
